Measurements taken from patent US5750720A, “4-[(thien-3-yl)methyl]-imidazole analgesics” (Ortho Pharmaceutical Corporation, priority 1996, dated 1998).
Counter-ions that a name gives are not always drawn. Like-named read-outs stand apart in the source and are kept apart here.

Columns and labels:
α2-adrenoceptor [1] = conditions: non-opiate mechanism, without opiate liability; cited from earlier work
α2-adrenoceptor [2] = conditions: cited from earlier work; for hypotensive effect: animals and humans, magnitude relatively insignificant
[3] = system: acetylcholine bromide-induced abdominal constriction response; assay: Mouse Acetylcholine Bromide-Induced Abdominal Constriction Assay; type: in vivo; conditions: p.o., 30 min before acetylcholine bromide 5.5 mg/kg i.p.; for inhibition at 30 mg/kg: @30 mpk; for ED50: po, 0.5 h, dose producing 50% analgesia
Description: Mouse Acetylcholine Bromide-Induced Abdominal Constriction Assay
The mouse acetylcholine bromide-induced abdominal constriction assay, as described by Collier et al. in Brit. J. Pharmacol. Chem. Ther., 32:295-310, 1968, with minor modifications was used to assess analgesic potency of the compounds herein. The test drugs or appropriate vehicle were administered orally (p.o.) and 30 minutes later the animal received an intraperitoneal (i.p.) injection of 5.5 mg/kg acetylcholine bromide (Matheson, Coleman and Bell, East Rutherford, N.J.). The mice were then placed in groups of three into glass bell jars and observed for a ten minute observation period for the occurrence of an abdominal constriction response (defined as a wave of constriction and elongation passing caudally along the abdominal wall, accompanied by a twisting of the trunk and followed by extension of the hind limbs). The percent inhibition of this response to a nociceptive stimulus (equated to % analgesia) was calculated as follows: The % Inhibition of response, i.e., % analgesia is equal to the difference between the number of control animals response and the number of drug-treated animals response times 100 divided by the number of control animals responding.
At least 15 animals were used for control and in each of the drug treated groups. At least three doses were used to determine each dose response curve and ED50 (that dose which would produce 50% analgesia). The ED50 values and their 95% fiducial limits were determined by a computer assisted probit analysis.

[4] = target: T1, Alpha2D adrenergic receptor (Rattus norvegicus, UniProt P22909); assay: Alpha2D adrenergic receptor binding assay (3H-paraaminoclonidine, rat cortex synaptic membranes); parameters: species or system Wistar rats
T1 construct: aliquots of the synaptic membrane fraction; from tissue; host or cells: rat cerebral cortex, synaptic membrane fraction
T1 sequence (P22909 1-465): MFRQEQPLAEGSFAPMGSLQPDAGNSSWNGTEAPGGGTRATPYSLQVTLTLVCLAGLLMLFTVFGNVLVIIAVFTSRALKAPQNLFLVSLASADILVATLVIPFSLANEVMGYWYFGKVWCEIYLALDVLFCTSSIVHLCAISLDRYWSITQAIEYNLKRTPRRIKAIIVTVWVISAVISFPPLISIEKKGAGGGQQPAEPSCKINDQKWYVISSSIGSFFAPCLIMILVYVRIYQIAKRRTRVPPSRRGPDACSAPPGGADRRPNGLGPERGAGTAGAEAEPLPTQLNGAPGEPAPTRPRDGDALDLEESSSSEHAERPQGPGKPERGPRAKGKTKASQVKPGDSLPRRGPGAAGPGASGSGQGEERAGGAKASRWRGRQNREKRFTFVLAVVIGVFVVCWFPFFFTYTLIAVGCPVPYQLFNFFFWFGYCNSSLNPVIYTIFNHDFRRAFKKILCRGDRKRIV
Description: Alpha2D adrenergic receptor binding assay
Male, Wistar rats (150-250 g, VAF, Charles River, Kingston, N.Y.) are sacrificed by cervical dislocation and their brains removed and placed immediately in ice cold HEPES buffered sucrose. The cortex is dissected out and homogenized in 20 volumes of HEPES sucrose in a Teflon®-glass homogenizer. The homogenate is centrifuged at 1000 g for 10 min, and the resulting supernatant centrifuged at 42,000 g for 10 min. The resulting pellet is resuspended in 30 volumes of 3 mM potassium phosphate buffer, pH 7.5, preincubated at 25° C. for 30 min and recentrifuged. The resulting pellet is resuspended as described above and used for the receptor binding assay. Incubation is performed in test tubes containing phosphate buffer, 2.5 mM MgCl2, aliquots of the synaptic membrane fraction, the ligand ^3 H-paraaminoclonidine and test drug at 25°0 C. for 20 min. The incubation is terminated by filtration of the tube contents through glass fiber filter sheets. Following washing of the sheets with 10 mM HEPES buffer, the adhering radioactivity is quantified by liquid scintillation spectrometry.
Binding of the test drug to the receptor is determined by comparing the amount of radiolabeled ligand bound in control tubes without drug to the amount of radiolabeled ligand bound in the presence of the drug. Dose-response data are analyzed with LIGAND, a nonlinear curve fitting program designed specifically for the analysis of ligand binding data. This assay is described by Simmons, R. M. A., and Jones, D. J., Binding of [^3 H-]prazosin and [^3 H-]p-aminoclonidine to α-Adrenoceptors in Rat Spinal Cord, Brain Research 445:338-349, 1988.

[5] = 3H-paraaminoclonidine, rat cortex, 25° C, 20 min, read-out: Ki

Clc1cccc(Cl)c1NC1=NCCN1 [Clonidine]
analgesia (α2-adrenoceptor [1]): produce analgesia through a non-opiate mechanism
other behavioral and physiological effects (α2-adrenoceptor [2]; in vivo): sedation and cardiovascular effects

CCc1cscc1C(C)c1c[nH]cn1 (stereo not shown) [Cp-10, 4-[1-(4-ethylthien-3-yl)ethyl]-1H-imidazole fumarate]
inhibition at 30 mg/kg [3]: 100%
Ki [4]: 0.28 nM

Cc1cc(Cc2c[nH]cn2)c(C)s1.O=C(O)/C=C/C(=O)O [Cp-5, 4-[(2,5-dimethylthien-3-yl)methyl]-1H-imidazole Fumarate]
ED50 [3]: 1.3 mg/kg
Ki [4]: 0.69 nM

Cc1cscc1Cc1c[nH]cn1.O=C(O)/C=C/C(=O)O [Cp-2, 4-[(4-Methylthien-3-yl)methyl]-1H-imidazole Fumarate]
ED50 [3]: 0.4 mg/kg
Ki [4]: 0.47 nM

Cc1csc(C)c1C(C)c1c[nH]cn1 (stereo not shown)
ED50 [3]: 7.8 mg/kg
Ki [4, 5]: 33.5 nM

Cc1sccc1Cc1c[nH]cn1 [Cp-1, 4-[(2-Methylthien-3-yl)methyl]-1H-imidazole Fumarate]
inhibition at 30 mg/kg [3]: 100%
Ki [4]: 0.44 nM

Cc1csc(C)c1Cc1c[nH]cn1 [Cp-8, 4-[(2,4-Dimethylthien-3-yl)methyl]-1H-imidazole Fumarate]
inhibition at 30 mg/kg [3]: 100%
Ki [4]: 0.1 nM

Cc1sccc1C(C)c1c[nH]cn1 (stereo not shown)
ED50 [3]: 1.6 mg/kg
Ki [4, 5]: 2.3 nM

CCC(c1c[nH]cn1)c1cscc1C (stereo not shown) [Cp-4, 4-[1-(4-Methylthien-3-yl)propyl]-1H-imidazole Fumarate]
inhibition at 30 mg/kg [3]: 100%
Ki [4]: 0.97 nM

Cc1cccc(Cc2c[nH]cn2)c1C [detomidine]
hypotensive effect (α2-adrenoceptor [2]): hypotensive in animals and in humans, but the magnitude of this cardiovascular effect is relatively insignificant

Cc1cccc(C(C)c2cnc[nH]2)c1C (racemic) [Medetomidine]
hypotensive effect (α2-adrenoceptor [2]): hypotensive in animals and in humans, but the magnitude of this cardiovascular effect is relatively insignificant

CC(c1ccsc1)c1c[nH]cn1 (stereo not shown)
inhibition at 30 mg/kg [3]: 100%
Ki [4, 5]: 2.5 nM

c1nc(Cc2ccsc2)c[nH]1
ED50 [3]: 6.4 mg/kg
Ki [4, 5]: 3.1 nM

CCc1sccc1C(C)c1c[nH]cn1 (stereo not shown)
inhibition at 30 mg/kg [3]: 100%
Ki [4, 5]: 1.1 nM

Cc1cc(C(C)c2c[nH]cn2)c(C)s1 (stereo not shown)
inhibition at 30 mg/kg [3]: 100%
Ki [4, 5]: 6.1 nM

CCc1cscc1Cc1c[nH]cn1 [Cp-9, 4-[(4-ethylthien-3-yl)methyl]-1H-imidazole fumarate]
inhibition at 30 mg/kg [3]: 100%
Ki [4]: 0.29 nM

C=C(c1c[nH]cn1)c1csc(Br)c1Br
inhibition at 30 mg/kg [3]: 27%
Ki [4, 5]: 0.98 nM

CCc1cc(C(C)c2c[nH]cn2)c(CC)s1 (stereo not shown)
inhibition at 30 mg/kg [3]: 67%
Ki [4, 5]: 11.4 nM

CCc1cc(Cc2c[nH]cn2)c(CC)s1.O=C(O)/C=C/C(=O)O [Cp-6, 4-[(2,5-diethylthien-3-yl)methyl]-1H-imidazole Fumarate]
ED50 [3]: 3.7 mg/kg
Ki [4]: 0.4 nM

CCc1sccc1Cc1c[nH]cn1.O=C(O)/C=C/C(=O)O [Cp-7, 4-[(2-ethylthien-3-yl)methyl]-1H-imidazole fumarate]
ED50 [3]: 0.4 mg/kg
Ki [4]: 0.07 nM

Cc1cscc1C(C)c1c[nH]cn1.O=C(O)/C=C/C(=O)O (stereo not shown) [Cp-3, 4-[1-(4-Methylthien-3-yl)ethyl]-1H-imidazole Fumarate]
ED50 [3]: 0.4 mg/kg
Ki [4]: 0.39 nM
